14 compounds from patent publication US8748466B2, “Isoxazole derivatives useful as antibacterial agents” (Pfizer Inc., priority 2011, dated 2014) can be followed below.

Converted amounts (≈) assume the structure as drawn. Where two headings read alike, the source gives them in different places.

Experiment [1] has as its system Escherichia coli EC-1: VOGEL, mouse virulent. Description: MIC determination (CLSI), EC-1. The settings on record: read-out: EC-1 MIC. Type of experiment: cell-based. The protocol:
(§1) The in vitro antibacterial activity of compounds described in the Examples was evaluated by minimum inhibitory concentration (MIC) testing according to Clinical and Laboratory Standards Institute (CLSI). See: Clinical and Laboratory Standards Institute. Methods for Dilution Antimicrobial Susceptibility Tests for Bacteria that Grow Aerobically; Approved Standard-Eighth Edition. CLSI document M7-A8 [ISBN 1-56238-689-1]. Clinical and Laboratory Standards Institute, 940 West Valley Road, Suite 1400, Wayne, Pa. 19087-1898 USA, 2006; also Clinical and Laboratory Standards Institute. Performance Standards for Antimicrobial Susceptibility Testing; Twentieth Informational Supplement. CLSI document M100-S20 [ISBN1-56238-716-2]. Clinical and Laboratory Standards Institute.
(§2) The MIC determination is a standard laboratory method for evaluating the antibacterial activity of a compound. The MIC represents the lowest drug concentration that inhibits visible growth of bacteria following overnight incubation. […] Typically, the drug concentration range is broken down into 2-fold increments (e.g., 0.06 μg/mL, 0.12 μg/mL. 0.25 μg/mL, 0.50 μg/mL, 1.0 μg/mL, etc.) and the various drug concentrations are all individually incubated overnight with approximately the same number of bacteria. The MIC is then determined by visually inspecting the drug effect at each concentration, and identifying the lowest drug concentration that has inhibited bacterial growth as compared to the drug free control. Typically, bacteria continue to grow at drug concentrations lower than the MIC and don't grow at concentrations at and above the MIC.
(§3) The MIC values described in Tables 4 and 5 below were derived from assays wherein each test compound was evaluated in duplicate. In cases where the duplicate values varied by 0-2-fold, the lower of the two values was reported below. Generally speaking, if the duplicate values varied by more than 2-fold, the assay was considered non-valid and was repeated until the variation between duplicate runs was 2-fold. In line with the CLSI guidelines referred to above, both control organisms and reference compounds were utilized in each MIC assay to provide proper quality control. MIC values generated with these control organisms and reference compounds were required to fall within a defined range for the assay to be considered valid and be included herein. Those skilled in the art will recognize that MIC values can and do vary from experiment to experiment. Generally speaking, it should be recognized that MIC values often vary +/−2-fold from experiment to experiment. While a single MIC is reported for each compound and each microorganism, the reader should not conclude that each compound was only tested once. Several of the compounds were subjected to multiple tests. The data reported in Tables 4 and 5 is reflective of the compound's relative activity and different MICs may have been generated on these occasions in line with the guidelines described above.
(§4) The following bacterial strains were used in these MIC determinations:
2) Escherichia coli EC-1: VOGEL, mouse virulent labeled as EC-1 in Tables 4 and 5;

Experiment [2] addresses T1, Pseudomonas aeruginosa LpxC enzyme (Pseudomonas aeruginosa, UniProt P47205).
T1 construct: made in house; host or cells: E. coli
T1 sequence (P47205 1-303): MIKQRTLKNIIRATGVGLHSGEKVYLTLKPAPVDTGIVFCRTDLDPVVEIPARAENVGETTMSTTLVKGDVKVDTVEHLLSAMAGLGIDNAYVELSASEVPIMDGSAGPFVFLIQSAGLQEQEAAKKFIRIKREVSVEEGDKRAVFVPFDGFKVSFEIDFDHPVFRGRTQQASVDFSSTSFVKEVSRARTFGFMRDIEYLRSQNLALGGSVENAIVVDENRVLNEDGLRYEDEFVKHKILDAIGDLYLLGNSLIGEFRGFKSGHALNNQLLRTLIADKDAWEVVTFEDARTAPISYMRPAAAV
Briefly: LpxC enzyme IC50 assay (PA LpxC enzyme IC50), BioTrove RapidFire mass spectrometry. Type of experiment: biochemical. The procedure:
In order to assess the compounds biological activity selected in vitro assays were conducted on selected compounds. One of the assays measured the compounds ability to disrupt the synthesis of lipopolysaccharide, LPS, which is a component of the outer membrane of Gram-negative bacteria. Disruption of this synthesis is lethal to the bacteria. The assay determined the compound's ability to inhibit LpxC, which is the first enzyme in the biosynthetic pathway for LPS (measured as IC50). Additionally, MICs (minimal inhibitory concentrations) were determined for several bacteria. The specific protocols are described below:
A) IC50 Assay LpxC Enzyme from P. aeruginosa Labeled as PA LpxC Enzyme IC50):
At the end of 1 hour, 5 ul of 1 N HCl was added to stop the enzyme reaction, the plates were centrifuged, and then processed with the BioTrove Rapidfire HTMS Mass Spectrometry System. A no-enzyme control was used in calculating the IC50 values from the percent conversion values.

Experiment [3] relates to Pseudomonas aeruginosa UC12120 (mouse virulent). Description: MIC determination (CLSI), PA-UC12120. Type of experiment: cell-based. Particulars: UC12120, read-out: PA-UC12120 MIC. The protocol:
as §1, §2, §3, §4
1) Pseudomonas aeruginosa UC12120 (mouse virulent) labeled as PA-UC12120 in Tables 4 and 5;

The subject of experiment [4] is Acinetobacter baumannii/haemolyticus: Multidrug-resistant clinical isolate AB-3167. Briefly: MIC determination (CLSI), AB-3167. The settings on record: overnight incubation, duplicate, lower of the two values reported. Format: cell-based. The procedure:
as §1, §2, §3, §4
3) Acinetobacter baumannii/haemolyticus: Multidrug-resistant clinical isolate labeled as AB-3167 in Tables 4 and 5;

Where [5] appears, read: P. aeruginosa LpxC enzyme 0.1 nM, 25° C., 1 hour, pH 8.0, read-out: PA:IC50.

The MIC is the lowest concentration found to suppress growth. The IC50 is the concentration that inhibits the measured activity by half. Turning to `CC(CCc1cc(-c2ncccc2F)no1)(C(=O)NO)S(C)(=O)=O` (racemic) [Example 43, 4-[3-(3-fluoropyridin-2-yl)isoxazol-5-yl]-N-hydroxy-2-methyl-2-(methylsulfonyl)butanamide], the MIC in experiment [1] is 64 µg/mL (≈ 179 µM); in experiment [3], 32 µg/mL (≈ 89.5 µM); in experiment [4] it was over 64 µg/mL. Also, in experiment [2] (setting [5]), the IC50 was over 100 nM.

Take `CCOC(=O)N(Cc1cc(CCC(C)(C(=O)NO)S(C)(=O)=O)no1)C(C)C` (racemic) [Example 23, ethyl ({3-[4-(hydroxyamino)-3-methyl-3-(methylsulfonyl)-4-oxobutyl]isoxazol-5-yl}methyl)isopropylcarbamate]: the minimum inhibitory concentration (MIC) in experiment [1], in experiment [3] and in experiment [4] was over 64 µg/mL in each case. For the same compound, the IC50 in experiment [2] (setting [5]) is over 100 nM.

In the case of `C[C@@](CCc1cc(-c2ccccc2)no1)(C(=O)NO)S(C)(=O)=O` [Example 4, (2R)-N-hydroxy-2-methyl-2-(methylsulfonyl)-4-(3-phenylisoxazol-5-yl)butanamide], the values for the MIC in experiment [1], in experiment [3] and in experiment [4] were 4 µg/mL (≈ 11.8 µM), 0.25 µg/mL (≈ 0.739 µM) and over 64 µg/mL, respectively. For the same compound, the 50% inhibitory concentration (IC50) in experiment [2] (setting [5]) came out at 5.78 nM.

Regarding `CC(CCc1cc(-c2c(Cl)cccc2Cl)on1)(C(=O)NO)S(C)(=O)=O` (racemic) [Example 10, 4-[5-(2,6-dichlorophenyl)isoxazol-3-yl]-N-hydroxy-2-methyl-2-(methylsulfonyl)butanamide], the minimal inhibitory concentration (MIC) in experiment [1] is 8 µg/mL (≈ 19.6 µM); in experiment [3], 64 µg/mL (≈ 157 µM); in experiment [4], over 64 µg/mL. In addition, the IC50 in experiment [2] (setting [5]) amounted to 10.5 nM.

With `COc1ccc(-c2cc(CCC(C)(C(=O)NO)S(C)(=O)=O)on2)cc1OC` (racemic) [Example 42, 4-[3-(3,4-dimethoxyphenyl)isoxazol-5-yl]-N-hydroxy-2-methyl-2-(methylsulfonyl)butanamide], the values for the MIC in experiment [1], in experiment [3] and in experiment [4] were over 64 µg/mL, 64 µg/mL (≈ 161 µM) and over 64 µg/mL, respectively. Besides, the half-inhibitory concentration (IC50) in experiment [2] (setting [5]) came to 38.6 nM.

Take `CCc1ccc(-c2cc(CCC(C)(C(=O)NO)S(C)(=O)=O)on2)s1` (racemic) [Example 7, 4-[3-(5-ethyl-2-thienyl)isoxazol-5-yl]-N-hydroxy-2-methyl-2-(methylsulfonyl)butanamide]: the MIC came to 4 µg/mL (≈ 10.7 µM) in experiment [1], 0.5 µg/mL (≈ 1.34 µM) in experiment [3] and 64 µg/mL (≈ 172 µM) in experiment [4]. In addition, the IC50 in experiment [2] (setting [5]) was determined as 1.1 nM.

For the compound `CC(CCc1cc(-c2cccc(Cl)c2Cl)on1)(C(=O)NO)S(C)(=O)=O` (racemic) [Example 30, 4-[5-(2,3-dichlorophenyl)isoxazol-3-yl]-N-hydroxy-2-methyl-2-(methylsulfonyl)butanamide], the MIC was 4 µg/mL (≈ 9.82 µM) in experiment [1], 1 µg/mL (≈ 2.46 µM) in experiment [3] and over 64 µg/mL in experiment [4]. This compound also had an IC50 in experiment [2] of 2.7 nM.

In the case of `CC(CCc1cc(-c2ccc(F)c(F)c2)no1)(C(=O)NO)S(C)(=O)=O` (racemic) [Example 41, 4-[3-(3,4-difluorophenyl)isoxazol-5-yl]-N-hydroxy-2-methyl-2-(methylsulfonyl)butanamide], the MIC was 16 µg/mL (≈ 42.7 µM) in experiment [1], 2 µg/mL (≈ 5.34 µM) in experiment [3] and over 64 µg/mL in experiment [4]. Moreover, the IC50 in experiment [2] (setting [5]) was 6.8 nM.

Take `CC(CCc1cc(-c2ccc(F)c(F)c2F)no1)(C(=O)NO)S(C)(=O)=O` (racemic) [Example 36, N-hydroxy-2-methyl-2-(methylsulfonyl)-4-[3-(2,3,4-trifluorophenyl)isoxazol-5-yl]butanamide]: the minimum inhibitory concentration (MIC) in experiment [1] was 16 µg/mL (≈ 40.8 µM); in experiment [3], 1 µg/mL (≈ 2.55 µM); in experiment [4] it was over 64 µg/mL. Also, the 50% inhibitory concentration (IC50) in experiment [2] (setting [5]) is 3.9 nM.

For the compound `COc1ccc(-c2cc(CCC(C)(C(=O)NO)S(C)(=O)=O)on2)cc1` (racemic) [Example 47, N-hydroxy-4-[3-(4-methoxyphenyl)isoxazol-5-yl]-2-methyl-2-(methylsulfonyl)butanamide], the values for the minimal inhibitory concentration (MIC) in experiment [1], in experiment [3] and in experiment [4] were 16 µg/mL (≈ 43.4 µM), 1 µg/mL (≈ 2.71 µM) and over 64 µg/mL, respectively. Also, the IC50 in experiment [2] (setting [5]) was determined as 4.1 nM.

Consider `CC(CCc1cc(COCc2ccccc2)on1)(C(=O)NO)S(C)(=O)=O` (racemic) [Example 9, 4-{5-[(benzyloxy)methyl]isoxazol-3-yl}-N-hydroxy-2-methyl-2-(methylsulfonyl)butanamide], for which the MIC in experiment [1] is over 64 µg/mL; in experiment [3] it was 8 µg/mL (≈ 20.9 µM); in experiment [4] it was over 64 µg/mL. Besides, the half-maximal inhibitory concentration (IC50) in experiment [2] (setting [5]) was determined as 25.1 nM.

As to `CC(CCc1cc(-c2cccc(F)c2)on1)(C(=O)NO)S(C)(=O)=O` (racemic) [Example 21, 4-[5-(3-fluorophenyl)isoxazol-3-yl]-N-hydroxy-2-methyl-2-(methylsulfonyl)butanamide], the minimum inhibitory concentration (MIC) in experiment [1] was 32 µg/mL (≈ 89.8 µM); in experiment [3], 4 µg/mL (≈ 11.2 µM); in experiment [4] it was over 64 µg/mL. The IC50 in experiment [2] amounted to 6.8 nM.

Turning to `CCCCSC(=O)N(C)Cc1cc(CCC(C)(C(=O)NO)S(C)(=O)=O)no1` (racemic) [Example 14, S-butyl ({3-[4-(hydroxyamino)-3-methyl-3-(methylsulfonyl)-4-oxobutyl]isoxazol-5-yl}methyl)methylthiocarbamate], the minimal inhibitory concentration (MIC) in experiment [1], in experiment [3] and in experiment [4] was over 64 µg/mL throughout. The half-maximal inhibitory concentration (IC50) in experiment [2] (setting [5]) was over 100 nM.

Turning to `CCCCNC(=O)OCc1cc(CCC(C)(C(=O)NO)S(C)(=O)=O)no1` (racemic) [Example 25, {3-[4-(hydroxyamino)-3-methyl-3-(methylsulfonyl)-4-oxobutyl]isoxazol-5-yl}methyl butylcarbamate], the MIC in experiment [1], in experiment [3] and in experiment [4] was over 64 µg/mL each time. In addition, in experiment [2] (setting [5]), the IC50 was over 100 nM.
